The values that follow come from ChEMBL document CHEMBL5244235, “Diarylpentanoids with antitumor activity: A critical review of structure-activity relationship studies” (Eur J Med Chem, 2020).

The nature of data set [1]: Antiproliferative activity against human MCF-10A cells assessed as cell growth inhibition. In kind it is toxicity, cell-based.
The test system of data set [2] is MDA-MB-231. In words: Antiproliferative activity against human MDA-MB-231 cells assessed as cell growth inhibition. The format is functional, cell-based.
Another data set relates to HCC1419. In words: Antiproliferative activity against human HCC1419 cells assessed as cell growth inhibition. The format is functional, cell-based.
The test system of data set [3] is MDA-MB-231. In words: Antiproliferative activity against lung metastasis variant of human MDA-MB-231 cells assessed as cell growth inhibition. In kind it is functional, cell-based.
The subject of data set [4] is MCF7. In words: Antiproliferative activity against human MCF7 cells assessed as cell growth inhibition. In kind it is functional, cell-based.
A further data set has as its system RPMI-7951. In words: Growth inhibition of human RPMI-7951 cells measured after 72 hrs by microplate reader analysis. In kind it is functional, cell-based. As to conditions: RPMI-7951, time 72 hrs.
For data set [5], the system named is MDA-MB-231. In words: Growth inhibition of human MDA-MB-231 cells measured after 72 hrs by microplate reader analysis. In kind it is functional.
Data set [6] can be described thus: Cytotoxicity against mouse MS-1 cells assessed as cell growth inhibition by anti-angiogenisis screening assay. In kind it is toxicity, cell-based.
A short description of data set [7]: Cytotoxicity against mouse SVR cells assessed as cell growth inhibition by anti-angiogenisis screening assay. The format is toxicity, cell-based.
The nature of data set [8]: Cytotoxicity against HUVEC cells assessed as cell growth inhibition by anti-angiogenisis screening assay. In kind it is toxicity, cell-based. As to conditions: human.
Data set [9] in a line: Cytotoxicity activity against mouse SVR cells assessed as cell growth inhibition at 4 ug/ml relative to control. In kind it is toxicity, cell-based. As to conditions: at 4 µg/mL.
Data set [10] is described as follows: Cytotoxicity activity against mouse SVR cells assessed as cell growth inhibition at 6 ug/ml relative to control. The conditions noted are these: at 6 µg/mL. In kind it is toxicity, cell-based.
Another data set deals with B16. In words: Antiproliferative activity against mouse B16 cells assessed as cell growth inhibition. The format is functional, cell-based.
A further data set has as its system HeLa. In words: Antiproliferative activity against human HeLa cells assessed as cell growth inhibition measured after 72 hrs by MTT assay. In kind it is functional, cell-based. A general note: Tetrazolium assays rely on reduction of a dye to a coloured formazan, in cell work by metabolically active cells.
Another data set concerns Ca-Ski. In words: Antiproliferative activity against human Ca-Ski cells assessed as cell growth inhibition measured after 72 hrs by MTT assay. The format is functional, cell-based.
Data set [11] can be described thus: Antiproliferative activity against human MRC9 cells assessed as cell growth inhibition measured after 72 hrs by MTT assay. In kind it is functional, cell-based. The conditions noted are these: MRC9, 72 h.
In data set [12] the test system is HCT-116. In words: Antiproliferative activity against human HCT116 cells assessed as cell growth inhibition measured after 96 hrs. The format is functional, cell-based. As to conditions: HCT-116, 96 h.
A further data set deals with KYSE-30. In words: Antiproliferative activity against human KYSE-30 cells assessed as cell growth inhibition measured upto 72 hrs by MTT assay. In kind it is functional, cell-based. As to conditions: KYSE-30, 72 h.
A further data set deals with AGS. In words: Antiproliferative activity against human AGS cells assessed as cell growth inhibition measured upto 72 hrs by MTT assay. The format is functional, cell-based.
The subject of a further data set is HUVEC. In words: Anti-angiogenesis activity in HUVEC cells. The format is functional, cell-based. The conditions noted are these: Homo sapiens.
Data set [13] relates to MCF7. In words: Antiproliferative activity against human MCF7 cells assessed as cell growth inhibition measured after 72 hrs. The format is functional, cell-based. As to conditions: MCF7, 72 h.
Data set [14] in a line: Antiproliferative activity against human SH-10-TC cells assessed as cell growth inhibition measured after 72 hrs. The format is functional, cell-based.
In a further data set the test system is HuCCT-1. In words: Antiproliferative activity against human HuCCT-1 cells assessed as cell growth inhibition measured after 72 hrs. The format is functional, cell-based. As to conditions: HuCCT-1, 72 h.
Data set [15] has as its system HCT-116. In words: Antiproliferative activity against human HCT-116 cells assessed as cell growth inhibition measured after 72 hrs. The conditions noted are these: HCT-116, 72 h. In kind it is functional, cell-based.
Data set [16] is described as follows: Antiproliferative activity against human PK-1 cells assessed as cell growth inhibition measured after 72 hrs. As to conditions: PK-1, 72 h. The format is functional, cell-based.
For a further data set, the system named is GCIY. In words: Antiproliferative activity against human GCIY cells assessed as cell growth inhibition measured after 72 hrs. In kind it is functional, cell-based.
The test system of a further data set is DLD-1. In words: Antiproliferative activity against human DLD-1 cells assessed as cell growth inhibition measured after 72 hrs. The format is functional, cell-based. The conditions noted are these: DLD-1, 72 h.
For a further data set, the system named is G-361. In words: Antiproliferative activity against human G-361 cells assessed as cell growth inhibition measured after 72 hrs. In kind it is functional, cell-based. The conditions noted are these: G-361, 72 h.
The next data set has as its system 8505C. In words: Antiproliferative activity against human 8505C cells assessed as cell growth inhibition measured after 72 hrs. In kind it is functional, cell-based.
A further data set deals with A549. In words: Antiproliferative activity against human A549 cells assessed as cell growth inhibition measured after 72 hrs. In kind it is functional, cell-based. As to conditions: A549, 72 h.
The nature of data set [17]: Antiproliferative activity against human OVK18 cells assessed as cell growth inhibition measured after 72 hrs. The conditions noted are these: OVK18, 72 h. The format is functional, cell-based.
The next data set concerns A-431. In words: Antiproliferative activity against human A-431 cells assessed as cell growth inhibition measured after 72 hrs. In kind it is functional, cell-based. The conditions noted are these: A-431, 72 h.
Another data set relates to ACHN. In words: Antiproliferative activity against human ACHN cells assessed as cell growth inhibition measured after 72 hrs. The format is functional, cell-based.
Another data set deals with Huh-7. In words: Antiproliferative activity against human Huh-7 cells assessed as cell growth inhibition measured after 72 hrs. The format is functional, cell-based. As to conditions: Huh-7, 72 h.
A further data set relates to PC-3. In words: Antiproliferative activity against human PC-3 cells assessed as cell growth inhibition measured after 72 hrs. The format is functional, cell-based. The conditions noted are these: PC-3, 72 h.

Several values for one entry are separate records, joined by “and”; a condition that tells them apart may be missing. Equal entries are not always repeated.

One may read the IC50 as the midpoint of a concentration-inhibition curve. Regarding `CCN(CC)CCOc1ccc(C(=O)N2C/C(=C\c3ccccc3)C(=O)/C(=C/c3ccccc3)C2)cc1`, the IC50 in data set [1] was found to be 41 µM; with MDA-MB-231 [2], 0.72 µM; in the data set on HCC1419, 1.46 µM; with MDA-MB-231 [3], 0.53 µM; with MCF7 [4], 1.64 µM.
Taken in the same sequence, the figures for `Cc1ccc(/C=C2\CN(C(=O)c3ccc(OCCN(C)C)cc3)C/C(=C\c3ccc(C)cc3)C2=O)cc1` were 41 µM, 0.72 µM, 1.46 µM, 0.53 µM and 1.64 µM.
As a reminder, the GI50 is the concentration giving 50% growth inhibition. Take `O=C(/C=C/c1ccc(O)cc1)/C=C/c1ccc(O)cc1`: the GI50 with RPMI-7951 was 2.3 µM; in the data set on MDA-MB-231 [5], 1 µM; in data set [6], 3.2 µM; in data set [7] it was 3.2 µM; in data set [8], 3.2 µM.
By inhibition is commonly meant how much of the control response was suppressed. `O=C(/C=C/c1ccccc1)/C=C/c1ccccc1`: in data set [9], the inhibition at 4 ug/ml was 87.1%. For the same molecule, the inhibition at 6 ug/ml in data set [10] was found to be 90.4%.
On to `COc1cc(/C=C2\CNC/C(=C\c3cc(OC)cc(OC)c3)C2=O)cc(OC)c1`, for which the IC50 in the data set on B16 stood at 0.2 µM.
In the case of `O=C(/C=C/c1c(Cl)cccc1Cl)/C=C/c1c(Cl)cccc1Cl`, the inhibition at 4 ug/ml in data set [9] is 87.1%. In data set [10], the inhibition at 6 ug/ml came out at 90.4%.
The term EC50 denotes the concentration giving half of the maximal effect. Turning to `O=C1/C(=C/c2cccc(F)c2)CCC/C1=C\c1cccc(F)c1`, the EC50 in the data set on HeLa (Homo sapiens, HeLa, 72 h) stood at 8.3 µM; with Ca-Ski, 6 µM; in data set [11], 16.4 µM.
With `O=C(/C=C/c1cccc(O)c1)/C=C/c1cccc(O)c1`, the GI50 in the data set with RPMI-7951 was determined as 2.3 µM; in the data set with MDA-MB-231 [5] it was 1 µM; in data set [6] it was 3.2 µM; in data set [7], 3.2 µM; in data set [8] it was 3.2 µM.
As to `COc1ccc(/C=C/C(=O)/C=C/c2ccc(OC)c(OC)c2)cc1OC`, the IC50 in the data set with HCT-116 [12] stood at 1.5 µM.
`COc1cc(/C=C/C(=O)/C=C/c2cc(OC)c(OC)c(OC)c2)cc(OC)c1OC`: the IC50 in the data set on HCT-116 [12] is 0.25 µM.
For `C#CCOc1ccc(/C=C2\CCC/C(=C\c3ccc(OCC#C)c(OC)c3)C2=O)cc1OC`, the 50% inhibitory concentration (IC50) came out at 3.6 µM with KYSE-30 and 0.56 µM with AGS.
Regarding `CCOc1ccc(/C=C2\CCC/C(=C\c3ccc(OCC)c(OC)c3)C2=O)cc1OC`, the IC50 in the data set on KYSE-30 amounted to 3.4 µM; in the data set on AGS it was 0.72 µM.
In the case of `O=C(/C=C/c1cccc(F)c1)/C=C/c1cccc(F)c1`, the EC50 was 1.03 µM in the data set on HeLa (Homo sapiens, HeLa, 72 h) and 1.03 µM in the data set on Ca-Ski.
As to `C#CCOc1ccc(/C=C2\CCC/C(=C\c3ccc(OCC#C)cc3)C2=O)cc1`, the concentration for half-maximal inhibition (IC50) in the data set on KYSE-30 came out at 3.4 µM; with AGS, 0.72 µM.
With `CCN(CC)CCOc1cccc(C(=O)N2C/C(=C\c3ccccc3)C(=O)/C(=C/c3ccccc3)C2)c1`, the IC50 in data set [1] is 41 µM; in the data set with MDA-MB-231 [2] it was 0.72 µM; in the data set with HCC1419 it was 1.46 µM; in the data set on MDA-MB-231 [3] it was 0.53 µM; in the data set with MCF7 [4] it was 1.64 µM.
Consider `COCOc1cc(/C=C/C(=O)CC(SCC(=O)OC)c2cc(OCOC)cc(OCOC)c2)cc(OCOC)c1` (centres undefined), for which, in the data set on HUVEC, 0.4 µM corresponded to half-maximal inhibition (IC50).
Turning to `O=C(/C=C/c1ccccc1O)/C=C/c1ccccc1O`, the concentration for a half-maximal effect (EC50) in the data set with HeLa (hela) was 1.03 µM and 2.6 µM; with Ca-Ski, 1.03 µM; in [11] it was 4.6 µM. Also, the GI50 with RPMI-7951 was found to be 2.3 µM; with MDA-MB-231 [5], 1 µM; in [6] it was 1.8 µM; in data set [7] it was 1.8 µM; in [8], 1.8 µM.
`COc1cc(/C=C/C(=O)/C=C/c2cc(OC)c(OC)c(OC)c2)cc(OC)c1O`: the IC50 (in the data set with MCF7 [13]; in data set [14]; with HuCCT-1; in the data set with HCT-116 [15]; in [16]; in the data set with GCIY) was 1 µM throughout. The IC50 with DLD-1 amounted to 1 µM; in the data set with G-361, 1 µM; in the data set on HUVEC, 0.4 µM; in the data set with 8505C, 1 µM; in the data set with A549 it was 1 µM; in [17], 1 µM. For the same molecule, the IC50 in the data set on A-431, with ACHN, in the data set with Huh-7 and in the data set on PC-3 was 1 µM throughout.
As for `COCOc1c(OC)cc(/C=C/C(=O)/C=C/c2cc(OC)c(OCOC)c(OC)c2)cc1OC`, in the data set with HCT-116 [12], the IC50 came out at 0.25 µM.
